From paper PMC6158189, “A pharmacological probe identifies cystathionine β-synthase as a new negative regulator for ferroptosis” (Cell Death & Disease, 2018)

Biological target: T1, endogenous hCBS in HepG2 cells (Homo sapiens, UniProt P35520)
T1 construct: effects of CH004 on the activity of endogenous CBS by incubating with HepG2; endogenous in cells; host or cells: HepG2
T1 sequence (P35520 1-551): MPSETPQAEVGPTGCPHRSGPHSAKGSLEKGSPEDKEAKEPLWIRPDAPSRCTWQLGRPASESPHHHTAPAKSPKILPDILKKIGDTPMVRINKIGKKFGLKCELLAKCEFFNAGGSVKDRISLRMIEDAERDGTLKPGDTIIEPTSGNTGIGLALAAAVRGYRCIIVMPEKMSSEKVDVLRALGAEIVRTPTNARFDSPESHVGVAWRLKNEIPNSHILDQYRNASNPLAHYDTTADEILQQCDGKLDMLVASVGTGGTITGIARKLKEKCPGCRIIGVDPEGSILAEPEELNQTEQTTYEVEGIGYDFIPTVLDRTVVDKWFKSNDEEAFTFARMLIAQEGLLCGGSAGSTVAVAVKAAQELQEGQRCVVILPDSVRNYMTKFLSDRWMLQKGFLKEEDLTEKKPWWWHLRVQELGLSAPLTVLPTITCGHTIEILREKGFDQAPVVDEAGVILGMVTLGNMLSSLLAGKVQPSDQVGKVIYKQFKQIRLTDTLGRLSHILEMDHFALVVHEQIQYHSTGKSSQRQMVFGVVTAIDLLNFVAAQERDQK
Assay: endogenous H2S in HepG2 cells (AzMC probe)
Type: cell-based
Settings: for decrease in H2S: HepG2
Description: Fig. 3 The effect of CH004 on the activity of endogenous hCBS in cells. a CH004 dose-dependently elevates the levels of Hcys in HepG2 and HEK293T cells. HepG2 cells or HEK293T cells were incubated with indicated CH004 or DMSO (control) for 12 h. The amount of total Hcys in cells was measured by ELISA using Axis® Homocysteine EIA kit (IBL, AX51301) (“Materials and Methods” section). […] HepG2 cells were treated with indicated DMSO, CH004 or HA for 8 h before the staining with AzMC probe. The amount of the H2S (blue) was quantified and is shown in (c). Bars, 50 μm. Control (CTR), DMSO group (100%). A representative fluorescence image from three independent experiments is shown. Means ± SDS (n = 3). d CH004 elevates Hcys in the peripheral blood of rats. The total Hcys of the blood samples collected from the anesthetized rats at the 75 min time point (Materials and Methods) were quantified by ELISA (see above). Means ± SDS (n = 6).
H2S levels in living cells were detected using a H2S-specific fluorescent probe according to a protocol described previously[31],[55]. To measure H2S in transiently transfected HEK293T cells, the cells were seeded on poly-D-Lys-coated coverslips (Thermo Scientific, Waltham, MA, USA) in 12-well plates at a density of ~ 1 × 10^5 cells per well, and hCBS or hCSE plasmids were transiently transfected by X-tremeGENE HP DNA Transfection Reagent according to the manufacturer’s protocol (Roche, Basel, Switzerland). After 24 h, the transfected cells were treated with DMSO or inhibitors for another 8 h, followed by staining with 7-azide-4-methylcoumarin (AzMC; Sigma-Aldrich). Similarly, HEK293T cells stably expressing CBS WT, Q222A mutant or EV were seeded on poly-D-Lys-coated coverslips in 12-well plates for one day before treatment with DMSO or inhibitors for 8 h. After incubation with 50 μM AzMC at 37 °C for 30 min, the cells were washed 4 times with PBS, and the fluorescent images were recorded with excitation by 405 nm laser by using a A1Si (Nikon) confocal microscope. The intensity of the blue fluorescent signals, indicating the amount of H2S, was quantified by ImageJ software (NIH, Bethesda, ML). The H2S signal was then corrected for the background signal detected in HEK293T cells transiently or stably expressing of empty vector (HEK293T-EV) and normalized by the corresponding cell-occupying area and compared with the control (DMSO group, 100%). Similarly, the H2S signal in HepG2 cells was quantified by AzMC staining, corrected for the background signal outside the cells, normalized by the cell area and expressed as percentages of DMSO control (100%).
To elucidate the subcellular localization of H2S, HepG2 cells were seeded on poly-D-Lys-coated coverslips in 12-well plates. After treatment with DMSO or inhibitors for 8 h, cells were sequentially incubated with 200 nM Mito-Tracker® Green and 50 μM AzMC for 30 min at 37 °C in PBS, and then fluorescent images were taken using a confocal microscope.
Figure S9. The effect of AOAA on the level of endogenous H2S in HepG2 cells. […] HepG2 cells were incubated with 0 (DMSO control), 1, 5 or 10 mM AOAA for 8 h before staining with 50 μM AzMC. Upper panels, the overlaid images; middle panels, the corresponding fluorescent images (blue, H2S); the lower panels, the bright-field images. Bars: 50 μm. (B) Quantification of the mean fluorescent density of H2S (blue). The intensity of H2S was accordingly quantified and normalized by correcting for the background signal outside cells. Data was expressed as percentages of the control (DMSO group, 100%). Means ± SDs (n=3). One-way ANOVA with Bonferroni post-tests was used for the analysis. *, p< 0.05; ***, p< 0.001; n.s. no significance. The images are one representative from three independent experiments.

Cn1nc(Cc2ccccc2)nc2c(=O)n(C)c(=O)nc1-2 [CH004, 3-benzyl-1,6-dimethylpyrimido[5,4-e][1,2,4]triazine-5,7(1H,6H)-dione]
decrease in H2S (5 μM, 8 h): ~ 50% | decrease in H2S (20 μM, 8 h): ~ 90% | mitochondrial H2S (8 h, Mito-tracker Green and AzMC): dose-dependently decreases | potency on inhibiting production of H2S in cells compared with AOAA (CH004 vs AOAA): at least 1000 fold
